Data from patent US4593104A, “2-halo-N-(azole-1-yl-methyl)-substituted acetanilides” (BASF Aktiengesellschaft, priority 1976, dated 1986).

Key:
[1] = test system: Amar. retro.; assay: preemergence treatment in the greenhouse, % damage; type: in vivo; conditions: one value printed for two rates (0.125 0.25 kg/ha)
Method in brief: (§1)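 Test species were sown separately in sandy loam and held at 25–40 °C (heat-loving) or 15–30 °C (temperate). Actives in water went onto the soil surface immediately (preemergence) or onto 3–10 cm plants (postemergence). A 0–100 scale rates emergence loss or destruction over 4–6 weeks.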

[2] = test system: Bromus spp.; assay: preemergence treatment in the greenhouse, % damage; type: in vivo
Method in brief: as §1

[3] = test system: Chrys. seget.; assay: preemergence treatment in the greenhouse, % damage; type: in vivo; conditions: 0.25 kg/ha
Method in brief: as §1

[4] = test system: Cyp. diff.; assay: preemergence treatment in the greenhouse, % damage; type: in vivo
Method in brief: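 Preemergence: active sprayed onto the soil surface immediately after sowing; pots sprinkler-irrigated and covered with transparent hoods until plants rooted. Postemergence: unhooded plants sprayed at 3–10 cm. Both run 4–6 weeks in greenhouse; damage 0 = none, 100 = no emergence or total kill of visible parts.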

[5] = test system: Euph. gen.; assay: preemergence treatment in the greenhouse, % damage; type: in vivo; conditions: 0.25 kg/ha
Method in brief: as §1

[6] = test system: Poa annua; assay: preemergence treatment in the greenhouse, % damage; type: in vivo
Method in brief: as §1

[7] = test system: Solanum nigrum; assay: preemergence treatment in the greenhouse, % damage; type: in vivo; conditions: 0.25 kg/ha
Method in brief: as §1

[8] = test system: Sorgh. halep.; assay: preemergence treatment in the greenhouse, % damage; type: in vivo
Method in brief: as §1

[9] = test system: Alopec. myosur.; assay: preemergence application in the open, % damage; type: in vivo; conditions: 2.0 kg/ha
Experimental: (§2) The experiments were carried out on small plots. The soil was a sandy loam having a pH of from 5 to 6 and containing from 1 to 1.5% humus. The treatment was preemergence, the active ingredients being applied immediately or at the latest 3 days after sowing. The crop plants were sown in rows. The weed flora was made up of the most widely varying species and was natural; the weed flora depended on the time of the year and in part on the crop (e.g., spring-germinating, summer-germinating). The substances were emulsified or suspended in water as the vehicle, and applied by means of a motor-driven plot spray mounted on a hitch. When no rain fell, the plots were watered to ensure germination and growth of the crop plants and weeds. All the experiments were run for several weeks. Over this period, assessments were made at certain intervals on the 0 to 100 scale.

[10] = test system: Amar. retro.; assay: preemergence application in the open, % damage; type: in vivo
Experimental: as §2

[11] = test system: Anth./Matric.; assay: preemergence application in the open, % damage; type: in vivo; conditions: 2.0 kg/ha
Experimental: as §2

[12] = test system: Brassica napus; assay: preemergence application in the open, % damage; type: in vivo; conditions: 2.0 kg/ha
Experimental: as §2

[13] = test system: Chenop. spp.; assay: preemergence application in the open, % damage; type: in vivo
Experimental: as §2

[14] = test system: Echin. c.g.; assay: preemergence application in the open, % damage; type: in vivo
Experimental: as §2

[15] = test system: Galins. spp.; assay: preemergence application in the open, % damage; type: in vivo
Experimental: as §2

[16] = test system: Lamium spp.; assay: preemergence application in the open, % damage; type: in vivo; conditions: 2.0 kg/ha
Experimental: as §2

[17] = test system: Stellaria media; assay: preemergence application in the open, % damage; type: in vivo; conditions: 2.0 kg/ha
Experimental: as §2

[18] = test system: Glyc. max; assay: preemergence application in the open, % damage; type: in vivo, Glycine max
Experimental: as §2

[19] = test system: Alopec. myosur.; assay: postemergence application in the greenhouse, % damage; type: in vivo
From the text: (§3) The vessels employed were plastic flowerpots having a volume of 300 cm^3; the substrate was a sandy loam containing about 1.5% humus. The seeds of the test plants (see Table 1) were sown shallow, and separated according to species. In the case of Cyperus esculentus, pregerminated tubers were planted. In the preemergence treatment, the active ingredients were then immediately applied to the surface of the soil. They were suspended or emulsified in water as the vehicle, and sprayed through atomizing nozzles. After the agents had been applied, the vessels were lightly sprinkler-irrigated to set germination and growth going, and to activate the chemical agents. The vessels were then covered with transparent plastic hoods until the plants had taken root. This cover ensured uniform germination of the test plants (to the extent that this was not impaired by the chemicals), and prevented readily volatile substances from evaporating.
(§4) For postemergence treatment, the plants were first grown to a height of from 3 to 10 cm, depending on their habit, before treated. Hoods were not placed on the pots. The experiments were set up in the greenhouse, hotter areas (25° to 40° C.) being preferred for heat-loving species, and 15° to 30° C. for plants from moderate climates. The experiments were carried out for from 4 to 6 weeks. During this period the plants were tended and their reaction to the various treatments was assessed. The following tables contain the substances investigated, the application rates in kg/ha of active ingredient, and the test plant species. Assessments were made on a 0 to 100 scale, 0 denoting no damage or normal emergence, and 100 denoting no emergence or complete destruction of at least the visible plant parts.

[20] = test system: Avena fat.; assay: as above; type: in vivo
From the text: as §3, §4

[21] = test system: Chrys. seget.; assay: as above; type: in vivo
From the text: as §3, §4

[22] = test system: Matric. spp.; assay: as above; type: in vivo
From the text: as §3, §4

[23] = test system: Setaria spp.; assay: as above; type: in vivo
From the text: as §3, §4

[24] = test system: Stell. med.; assay: as above; type: in vivo
From the text: as §3, §4

[25] = test system: Cyper. escul.; assay: as above; type: in vivo, Cyperus esculentus
From the text: as §3, §4

## Cc1cccc(C)c1N(Cn1cccn1)C(=O)CCl [Compound 5]
[1]
  % damage: 100%
[2]; 0.125 kg/ha
  % damage: 90%
[2]; 0.25 kg/ha
  % damage: 95%
[3]
  % damage: 100%
[4]; 0.125 kg/ha
  % damage: 100%
[4]; 0.25 kg/ha
  % damage: 100%
[5]
  % damage: 100%
[6]; 0.125 kg/ha
  % damage: 100%
[6]; 0.25 kg/ha
  % damage: 100%
[7]
  % damage: 100%
[8]; 0.125 kg/ha
  % damage: 95%
[8]; 0.25 kg/ha
  % damage: 95%
[9]
  % damage: 95%
[10]; 0,5 kg/ha
  % damage: 100%
[10]; 1,0 kg/ha
  % damage: 100%
[11]
  % damage: 100%
[12]
  % damage: 7.5%
[13]; 0,5 kg/ha
  % damage: 69%
[13]; 1,0 kg/ha
  % damage: 85%
[14]; 0,5 kg/ha
  % damage: 100%
[14]; 1,0 kg/ha
  % damage: 100%
[15]; 0,5 kg/ha
  % damage: 91%
[15]; 1,0 kg/ha
  % damage: 100%
[16]
  % damage: 100%
[17]
  % damage: 100%
[18]; 0,5 kg/ha
  % damage: 0%
[18]; 1,0 kg/ha
  % damage: 4%
[19]; 1.0 kg/ha
  % damage: 80%
[19]; 2.0 kg/ha
  % damage: 90%
[20]; 1.0 kg/ha
  % damage: 90%
[20]; 2.0 kg/ha
  % damage: 92%
[21]; 1.0 kg/ha
  % damage: 98%
[21]; 2.0 kg/ha
  % damage: 98%
[22]; 1.0 kg/ha
  % damage: 95%
[22]; 2.0 kg/ha
  % damage: 95%
[23]; 1.0 kg/ha
  % damage: 82%
[23]; 2.0 kg/ha
  % damage: 85%
[24]; 1.0 kg/ha
  % damage: 95%
[24]; 2.0 kg/ha
  % damage: 98%
[25]; 1.0 kg/ha
  % damage: 70%
[25]; 2.0 kg/ha
  % damage: 72%
